The conditions of this data set: instrument: DT, single field, calibrated with Agilent tune mix (Agilent).

Where “and” joins values, the source holds several entries; their conditions need not be identical. Equal values may be shown once.

On to `CCCCCCC(N)C(=O)O` (racemic) [DL-2-Aminooctanoic acid], for which the “collision cross section (N2)” value ([M+H]+) is recorded as 147.1 Å² and the “collision cross section (N2)” value ([M-H]-) is reported as 141.62 Å². For `O=C(O)C(O)Cc1ccccc1` (racemic) [DL-3-Phenyllactic acid], the “collision cross section (N2)” value ([M+H]+) came to 137.8 Å² and the “collision cross section (N2)” value ([M-H]-) worked out at 134.74 Å². `N[C@@H](CCSSCC[C@H](N)C(=O)O)C(=O)O` (racemic) [DL-Homocystine]: the “collision cross section (N2)” value reads like this: ([M+H]+) 157.9 Å²; ([M+Na-2H]-) 152.2 Å². As for `COc1cc(C(O)C(=O)O)ccc1O` (racemic) [DL-Vanillylmandelic acid], the “collision cross section (N2)” value was 133.3 Å² ([M+H-H2O]+) and 140.9 Å² ([M-H]-). For `Cn1c(=O)c2[nH]c(=O)[nH]c2n(C)c1=O` [1,3-Dimethyluric acid], the “collision cross section (N2)” value is listed as 142.5 Å² ([M+H]+) and 134.24 Å² ([M-H]-).

For the molecule `Cn1cnc2c(ncn2[C@@H]2O[C@H](CO)[C@@H](O)[C@H]2O)c1=N` [1-Methyladenosine], the “collision cross section (N2)” value by setting is: ([M+H]+) 164.2 Å²; ([M-H]-) 159.21 Å². For the molecule `Cn1c(=O)[nH]c2nc[nH]c2c1=O` [1-Methylxanthine], the “collision cross section (N2)” value ([M-H]-) came out at 124.23 Å². On to `CCCCCCCCCCCCCCCCCC(=O)OC[C@@H](O)CO` [1-Stearoyl-sn-glycerol], for which, under “[M+H-H2O]+”, the “collision cross section (N2)” value was 199.6 Å². For `Nc1ncnc2c1ncn2[C@H]1C[C@H](O)[C@@H](COP(=O)(O)OP(=O)(O)OP(=O)(O)O)O1` [2'-Deoxyadenosine 5'-triphosphate], under “[M-H]-”, the “collision cross section (N2)” value is listed as 183.78 Å². For the molecule `Nc1nc(=O)c2ncn([C@H]3C[C@H](O)[C@@H](COP(=O)(O)OP(=O)(O)O)O3)c2[nH]1` [2'-Deoxyguanosine 5'-diphosphate], the “collision cross section (N2)” value ([M-H2O-H]-) stood at 174.28 Å². Consider `O=c1ccn([C@H]2C[C@H](O)[C@@H](CO)O2)c(=O)[nH]1` [2'-Deoxyuridine], for which the “collision cross section (N2)” value amounted to 156 Å² ([M+Na]+) and 145.91 Å² ([M-H]-). Regarding `O=C(O)c1cccc(O)c1O` [2,3-Dihydroxybenzoic acid], the “collision cross section (N2)” value ([M-H]-) is on record as 118.42 Å². Regarding `CCCCCCCC/C=C/CCCCCCCC(=O)O[C@H](COC(=O)CCCCCCCCCCCCCCC)COP(=O)([O-])OCC[N+](C)(C)C` [2-Oleoyl-1-palmitoyl-sn-glycero-3-phosphocholine], the “collision cross section (N2)” value by setting is: ([M+H]+) 286.7 Å²; ([M-H]-) 272.17 Å².

In the case of `Nc1ncnc2c1ncn2[C@@H]1O[C@H](COP(=O)(O)OS(=O)(=O)O)[C@@H](OP(=O)(O)O)[C@H]1O` [3'-Phosphoadenosine 5'-phosphosulfate], the “collision cross section (N2)” value ([M-H]-) is reported as 192.76 Å². On the same count and under the same terms, next, `O=C(O)CCc1ccc(O)c(O)c1` [3,4-Dihydroxyhydrocinnamic acid]: 133.05 Å². Regarding `O=C(O)C(O)c1ccc(O)c(O)c1` (stereo not given) [3,4-Dihydroxymandelic acid], the “collision cross section (N2)” value reads like this: ([M+H-H2O]+) 132 Å²; ([M-H]-) 135 Å².

On to `Nc1cccc(C(=O)O)c1O` [3-Aminosalicylic acid], for which the “collision cross section (N2)” value ([M-H]-) is reported as 122.07 Å². For the molecule `CC(O)(CC(=O)O)CC(=O)O` [3-Hydorxy-3-methylglutaric acid], the “collision cross section (N2)” value ([M-H]-) stood at 123.66 Å². For the molecule `O=C(O)Cc1cccc(O)c1` [3-Hydroxyphenylacetic acid], the “collision cross section (N2)” value ([M+Na-2H]-) turned out to be 135.74 Å².

On to `N[C@@H](Cc1ccc(O)c(I)c1)C(=O)O` [3-Iodo-L-tyrosine], for which the “collision cross section (N2)” value by setting is: ([M+H]+) 158.8 Å²; ([M+Na-2H]-) 148.03 Å². Consider `CC(CCC(=O)O)CC(=O)O` (stereo not given) [3-Methyladipic acid], for which, under “[M-H]-”, the “collision cross section (N2)” value is reported as 129.01 Å².

Consider `CC(C)CC(=O)SCCNC(=O)CCNC(=O)[C@H](O)C(C)(C)COP(=O)(O)OP(=O)(O)OC[C@H]1O[C@@H](n2cnc3c(N)ncnc32)[C@H](O)[C@@H]1OP(=O)(O)O` [3-Methylbutanoyl-CoA], for which the “collision cross section (N2)” value ([M-H]-) stood at 255.72 Å². In the case of `O=C(O)CCc1ccccc1` [3-Phenylpropanoic acid], the “collision cross section (N2)” value ([M-H]-) came out at 135.74 Å². Consider `NC(=O)NCCC(=O)O` [3-Ureidopropionate], for which the “collision cross section (N2)” value ([M+Na]+) worked out at 132.3 Å². As to `C[C@]12CC[C@@H](O)C[C@@H]1CC[C@@H]1[C@@H]2CC[C@]2(C)C(=O)CC[C@@H]12` [3alpha-Hydroxy-5alpha-androstan-17-one], under “[M-H]-”, the “collision cross section (N2)” value is 176.71 Å². For `O=C(O)/C=C/c1ccc(O)cc1` [4-Hydroxycinnamic acid], the “collision cross section (N2)” value amounted to 127 Å² ([M+H-H2O]+) and 129.27 Å² ([M-H]-).

With `CC1=C(/C=C/C(C)=C/C=C/C(C)=C/CO)C(C)(C)CCC1=O` [4-Oxoretinol], the “collision cross section (N2)” value ([M+H-H2O]+) was determined as 173.3 Å². Regarding `Cc1ncc(CO)c(C(=O)O)c1O` [4-Pyridoxic acid], the “collision cross section (N2)” value ([M+H]+) was 135.3 Å² and 135.8 Å². In the case of `NCCCCC(=O)O` [5-Aminopentanoic acid], the “collision cross section (N2)” value is, setting by setting: ([M+H]+) 121.3 Å²; ([M-H]-) 124.49 Å².

Take `NC[C@H](O)CC[C@H](N)C(=O)O` [5-Hydroxy-L-lysine]: the “collision cross section (N2)” value is given as 135.1 Å² ([M+H]+) and 131.7 Å² ([M-H]-). As for `O=C(O)Cc1c[nH]c2ccc(O)cc12` [5-Hydroxyindoleacetate], where the note is “[M+H]+”, the “collision cross section (N2)” value is 140.9 Å². Take `OCCc1c[nH]c2ccc(O)cc12` [5-Hydroxytryptophol]: the “collision cross section (N2)” value ([M+H]+) is 138.7 Å² and the “collision cross section (N2)” value ([M-H]-) came out at 134.49 Å². In the case of `C[C@H](NC(=O)CC[C@H](N)C(=O)O)C(=O)O` [5-L-Glutamyl-L-alanine], the “collision cross section (N2)” value was 149.6 Å² ([M+H]+) and 140.25 Å² ([M-H]-).

Consider `COc1ccc2[nH]cc(CCN(C)C)c2c1` [5-Methoxydimethyltryptamine], for which the “collision cross section (N2)” value came out at 151.5 Å² ([M+H]+) and 153.76 Å² ([M-H]-).

`COc1ccc2[nH]cc(CC(=O)O)c2c1` [5-Methoxyindoleacetate]: under “[M+H]+”, the “collision cross section (N2)” value stood at 144 Å². Regarding `COc1ccc2[nH]cc(C[C@H](N)C(=O)O)c2c1` [5-methoxytryptophan], the “collision cross section (N2)” value ([M+Na]+) is reported as 156.2 Å² and the “collision cross section (N2)” value ([M-H]-) was 154.36 Å².

In the case of `C[C@]12CCC(=O)C=C1CC[C@@H]1[C@@H]2CC[C@@]2(C)[C@H]1CC[C@]2(O)C(=O)CO` [11-Deoxycortisol], the “collision cross section (N2)” value ([M-H]-) is given as 183.12 Å². Consider `CC(=O)[C@H]1CC[C@H]2[C@@H]3CCC4=CC(=O)CC[C@]4(C)[C@H]3[C@@H](O)C[C@]12C` [11beta-Hydroxyprogesterone], for which the “collision cross section (N2)” value reads like this: ([M+H]+) 182.3 Å²; ([M-H2O-H]-) 180.95 Å². For `CCCCC/C=C/C=C1/C(=O)C=C[C@@H]1C/C=C\CCCC(=O)O` [15-Deoxy-delta-12,14-PGJ2], the “collision cross section (N2)” value ([M+Na]+) is recorded as 192.5 Å². `C[C@H](CCCC(C)(C)O)[C@H]1CC[C@H]2[C@@H]3CC=C4C[C@@H](O)CC[C@]4(C)[C@H]3CC[C@]12C` [25-Hydroxycholesterol]: the “collision cross section (N2)” value ([M-H]-) is reported as 202.81 Å². On to `CCCCC/C=C\C/C=C\C/C=C\CCCCC(=O)O` [(6,9,12)-Linolenic acid], for which, where the note is “[M+H]+”, the “collision cross section (N2)” value is 174.1 Å².

With `CC(=O)OP(=O)(O)O` [Acetyl phosphate], where the note is “[M+Na]+”, the “collision cross section (N2)” value is listed as 142.7 Å². Consider `CC(=O)SCCNC(=O)CCNC(=O)[C@H](O)C(C)(C)COP(=O)(O)OP(=O)(O)OC[C@H]1O[C@@H](n2cnc3c(N)ncnc32)[C@H](O)[C@@H]1OP(=O)(O)O` [Acetyl-CoA], for which the “collision cross section (N2)” value ([M+H]+) turned out to be 244.7 Å².

On to `Nc1ncnc2c1ncn2[C@@H]1O[C@@H]2COP(=O)(O)O[C@H]2[C@H]1O` [Adenosine 3',5'-cyclic phosphate], for which the “collision cross section (N2)” value ([M+H]+) came to 176.8 Å². Consider `Nc1ncnc2c1ncn2[C@@H]1O[C@H](COP(=O)(O)OP(=O)(O)OP(=O)(O)O)[C@@H](O)[C@H]1O` [Adenosine 5'-triphosphate], for which the “collision cross section (N2)” value by setting is: ([M+H]+) 196.4 Å²; ([M-H]-) 185.74 Å². For the molecule `Nc1ncnc2c1ncn2[C@@H]1O[C@H](COP(=O)(O)O)[C@@H](O)[C@H]1O` [Adenosine monophosphate (AMP)], for the setting “[M+H]+”, the “collision cross section (N2)” value was determined as 171.4 Å².

With `O=C(O)CCCCC(=O)O` [Adipic acid], the “collision cross section (N2)” value ([M+Na-2H]-) came to 129.61 Å². With `O=P(O)(O)OC[C@H]1O[C@H](OP(=O)(O)O)[C@H](O)[C@@H](O)[C@@H]1O` [Alpha-D-Glucose 1,6-bisphosphate], for the setting “[M+Na-2H]-”, the “collision cross section (N2)” value turned out to be 159.11 Å². Take `OC[C@H]1O[C@H](O)[C@H](O)[C@@H](O)[C@@H]1O` [Alpha-D-Glucose]: the “collision cross section (N2)” value ([M+Na]+) worked out at 146.2 Å².

Take `C[C@]12CCC(=O)C=C1CC[C@@H]1[C@@H]2CC[C@]2(C)C(=O)CC[C@@H]12` [Androstendione]: where the note is “[M-H]-”, the “collision cross section (N2)” value was 172.77 Å². With `C[C@]12CC[C@@H](O)C[C@@H]1CC[C@@H]1[C@@H]2CC[C@]2(C)C(=O)CC[C@@H]12` [Androsterone], the “collision cross section (N2)” value ([M+H-H2O]+) stood at 166.6 Å².

Take `COC(=O)[C@H](Cc1ccccc1)NC(=O)[C@@H](N)CC(=O)O` [Aspartame]: the “collision cross section (N2)” value runs as follows: ([M+H]+) 169.6 Å²; ([M-H]-) 166.71 Å².

For `O=C1CC(=O)NC(=O)N1` [Barbituric acid], the “collision cross section (N2)” value ([M-H]-) is given as 112.69 Å². On the same count and under the same terms, the value for `C[C@]12CC[C@@H]3c4ccc(O)cc4CC[C@H]3[C@@H]1CC[C@@H]2O` [Beta-Estradiol] was 173.34 Å²; that for `C=CC1=C(C)/C(=C/c2[nH]c(Cc3[nH]c(/C=C4\NC(=O)C(C)=C4C=C)c(C)c3CCC(=O)O)c(CCC(=O)O)c2C)NC1=O` [Bilirubin] was 247.18 Å².
